Columns and labels:
Assay type in all cases: in vivo
Setaria viridis [1] = experiment: Pre-emergence herbicidal effect against SETVI; details: 1280 g/ha, visual score after 3 weeks, 100% = plants have died, 0% = like control plants
Method in brief: (§1)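 Percent herbicidal activity (100% = dead, 0% = as control) was rated by eye 3 weeks post-application in greenhouse pots of sandy loam, with treatment sprayed onto the covering soil before emergence.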

Abutylon threophrasti [2] = experiment: Pre-emergence herbicidal effect against ABUTH; details: 1280 g/ha, visual score after 3 weeks, 100% = plants have died, 0% = like control plants
Description: (§2) 1. Pre-emergence herbicidal effect and crop plant compatibility Seeds of monocotyledonous and dicotyledonous weed plants and crop plants are laid out in sandy loam soil in wood-fibre pots and covered with soil. The compounds of the invention, formulated in the form of wettable powders (WP) or as emulsion concentrates (EC), are then applied to the surface of the covering soil as aqueous suspension or emulsion at a water application rate equating to 600 to 800 L/ha with addition of 0.2% wetting agent. After the treatment, the pots are placed in a greenhouse and kept under good growth conditions for the trial plants. The damage to the test plants is scored visually after a test period of 3 weeks by comparison with untreated controls (herbicidal activity in percent (%): 100% activity=the plants have died, 0% activity=like control plants). [table]

Alopecurus myosuroides [3] = experiment: Pre-emergence herbicidal effect against ALOMY; details: 1280 g/ha, visual score after 3 weeks, 100% = plants have died, 0% = like control plants
Method in brief: as §1

Poa annua [4] = experiment: Post-emergence herbicidal effect against POAAN; details: 1280 g/ha, visual assessment about 3 weeks after treatment, 100% = plants have died, 0% = like control plants
Method in brief: (§3)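 Percent herbicidal effect, judged visually against untreated plants about 3 weeks after treatment, where 100% means dead plants. Treatment was a foliar spray of WP or EC formulations (600 to 800 l/ha water, 0.2% wetting agent) on one-leaf-stage plants raised in sandy loam.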

Alopecurus myosuroides [5] = experiment: Post-emergence herbicidal effect against ALOMY; details: 1280 g/ha, visual score after about 3 weeks, 100% = plants have died, 0% = like control plants
Method in brief: as §3

Abutylon threophrasti [6] = experiment: Post-emergence herbicidal effect against ABUTH; details: 1280 g/ha, visual assessment about 3 weeks after treatment, 100% = plants have died, 0% = like control plants
Method in brief: as §3

Setaria viridis [7] = experiment: Post-emergence herbicidal effect against SETVI; details: 1280 g/ha, visual assessment about 3 weeks after treatment, 100% = plants have died, 0% = like control plants
Method in brief: as §3

Echinochloa crus-galli [8] = experiment: Pre-emergence herbicidal effect against ECHCG; details: 1280 g/ha, visual score after 3 weeks, 100% = plants have died, 0% = like control plants
Method in brief: as §1

Amaranthus retroflexus [9] = experiment: Post-emergence herbicidal effect against AMARE; details: 1280 g/ha, visual assessment about 3 weeks after treatment, 100% = plants have died, 0% = like control plants
Method in brief: as §3

Amaranthus retroflexus [10] = experiment: Pre-emergence herbicidal effect against AMARE; details: 1280 g/ha, visual score after 3 weeks, 100% = plants have died, 0% = like control plants
Method in brief: as §1

Digitaria sanguinalis [11] = experiment: Post-emergence herbicidal effect against DIGSA; details: 1280 g/ha, visual score after about 3 weeks, 100% = plants have died, 0% = like control plants
Method in brief: as §3

Echinochloa crus-galli [12] = experiment: Post-emergence herbicidal effect against ECHCG; details: 1280 g/ha, visual score after about 3 weeks, 100% = plants have died, 0% = like control plants
Method in brief: as §3

Stellaria media [13] = experiment: Post-emergence herbicidal effect against STEME; details: 1280 g/ha, visual assessment about 3 weeks after treatment, 100% = plants have died, 0% = like control plants
Method in brief: as §3

Lolium rigidum [14] = experiment: Pre-emergence herbicidal effect against LOLRI; details: 1280 g/ha, visual score after 3 weeks, 100% = plants have died, 0% = like control plants
Method in brief: as §1

Stellaria media [15] = experiment: Pre-emergence herbicidal effect against STEME; details: 1280 g/ha, visual score after 3 weeks, 100% = plants have died, 0% = like control plants
Method in brief: as §1

[16] = test system: Tripleurospermum inodorum; experiment: Pre-emergence herbicidal effect against MATIN; details: 1280 g/ha, visual score after 3 weeks, 100% = plants have died, 0% = like control plants
Method in brief: as §1

Veronica persica [17] = experiment: Pre-emergence herbicidal effect against VERPE; details: 1280 g/ha, visual score after 3 weeks, 100% = plants have died, 0% = like control plants
Method in brief: as §1

Poa annua [18] = experiment: Pre-emergence herbicidal effect against POAAN; details: 1280 g/ha, visual score after 3 weeks, 100% = plants have died, 0% = like control plants
Method in brief: as §1

Veronica persica [19] = experiment: Post-emergence herbicidal effect against VERPE; details: 1280 g/ha, visual assessment about 3 weeks after treatment, 100% = plants have died, 0% = like control plants
Method in brief: as §3

Bassia scoparia [20] = experiment: Post-emergence herbicidal effect against KCHSC; details: 1280 g/ha, visual assessment about 3 weeks after treatment, 100% = plants have died, 0% = like control plants
Method in brief: as §3

[21] = test system: Tripleurospermum inodorum; experiment: Post-emergence herbicidal effect against MATIN; details: 1280 g/ha, visual assessment about 3 weeks after treatment, 100% = plants have died, 0% = like control plants
Method in brief: as §3

Bassia scoparia [22] = experiment: Pre-emergence herbicidal effect against KCHSC; details: 1280 g/ha, visual score after 3 weeks, 100% = plants have died, 0% = like control plants
Description: as §2

Digitaria sanguinalis [23] = experiment: Pre-emergence herbicidal effect against DIGSA; details: 1280 g/ha, visual score after 3 weeks, 100% = plants have died, 0% = like control plants
Method in brief: as §1

Lolium rigidum [24] = experiment: Post-emergence herbicidal effect against LOLRI; details: 1280 g/ha, visual score after about 3 weeks, 100% = plants have died, 0% = like control plants
Method: [table] 2. Post-emergence herbicidal effect and crop plant compatibility Seeds of monocotyledonous and dicotyledonous weed and crop plants are laid out in sandy loam soil in wood-fibre pots, covered with soil and cultivated in a greenhouse under good growth conditions. 2 to 3 weeks after sowing, the test plants are treated at the one-leaf stage. The compounds of the invention, formulated in the form of wettable powders (WP) or as emulsion concentrates (EC), are then sprayed onto the green parts of the plants as aqueous suspension or emulsion at a water application rate equating to 600 to 800 l/ha with addition of 0.2% wetting agent. After the test plants have been left to stand in the greenhouse under optimal growth conditions for about 3 weeks, the action of the preparations is assessed visually in comparison to untreated controls (herbicidal action in percent (%): 100% activity=the plants have died, 0% activity=like control plants).

CCOC(=O)C[S+]([O-])c1nn(-c2ccccc2F)c(-c2cncc(F)c2)c1Br (stereo not shown) [II-011]
Pre-emergence action against SETVI (Setaria viridis [1]): 100% | Pre-emergence action against ABUTH (Abutylon threophrasti [2]): 90% | Pre-emergence action against ALOMY (Alopecurus myosuroides [3]): 100% | Post-emergence action against POAAN (Poa annua [4]): 100% | Post-emergence action against ALOMY (Alopecurus myosuroides [5]): 100% | Post-emergence action against ABUTH (Abutylon threophrasti [6]): 90% | Post-emergence action against SETVI (Setaria viridis [7]): 100% | Pre-emergence action against ECHCG (Echinochloa crus-galli [8]): 100% | Post-emergence action against AMARE (Amaranthus retroflexus [9]): 90% | Pre-emergence action against AMARE (Amaranthus retroflexus [10]): 100% | Post-emergence action against DIGSA (Digitaria sanguinalis [11]): 100% | Post-emergence action against ECHCG (Echinochloa crus-galli [12]): 100% | Post-emergence action against STEME (Stellaria media [13]): 100% | Pre-emergence action against LOLRI (Lolium rigidum [14]): 100% | Pre-emergence action against STEME (Stellaria media [15]): 100% | Pre-emergence action against MATIN [16]: 100% | Pre-emergence action against VERPE (Veronica persica [17]): 100% | Pre-emergence action against POAAN (Poa annua [18]): 100% | Post-emergence action against VERPE (Veronica persica [19]): 90% | Post-emergence action against KCHSC (Bassia scoparia [20]): 100% | Post-emergence action against MATIN [21]: 90% | Pre-emergence action against KCHSC (Bassia scoparia [22]): 100% | Pre-emergence action against DIGSA (Digitaria sanguinalis [23]): 100%

COC(=O)CCNC(=O)CSc1nn(-c2ccccc2F)c(-c2cncc(F)c2)c1Br [VII-010]
Pre-emergence action against SETVI (Setaria viridis [1]): 100% | Pre-emergence action against ALOMY (Alopecurus myosuroides [3]): 90% | Post-emergence action against POAAN (Poa annua [4]): 100% | Post-emergence action against ALOMY (Alopecurus myosuroides [5]): 90% | Post-emergence action against ABUTH (Abutylon threophrasti [6]): 90% | Post-emergence action against SETVI (Setaria viridis [7]): 90% | Pre-emergence action against ECHCG (Echinochloa crus-galli [8]): 90% | Post-emergence action against LOLRI (Lolium rigidum [24]): 90% | Post-emergence action against ECHCG (Echinochloa crus-galli [12]): 90% | Pre-emergence action against LOLRI (Lolium rigidum [14]): 100% | Pre-emergence action against STEME (Stellaria media [15]): 90% | Pre-emergence action against MATIN [16]: 100% | Pre-emergence action against VERPE (Veronica persica [17]): 100% | Pre-emergence action against POAAN (Poa annua [18]): 100% | Post-emergence action against VERPE (Veronica persica [19]): 90% | Post-emergence action against KCHSC (Bassia scoparia [20]): 90% | Post-emergence action against MATIN [21]: 90% | Pre-emergence action against KCHSC (Bassia scoparia [22]): 90%

CCOC(=O)CSc1nn(-c2ccccc2F)c(-c2cncc(Cl)c2)c1Br [II-007]
Pre-emergence action against SETVI (Setaria viridis [1]): 100% | Pre-emergence action against ABUTH (Abutylon threophrasti [2]): 90% | Pre-emergence action against ALOMY (Alopecurus myosuroides [3]): 100% | Post-emergence action against POAAN (Poa annua [4]): 100% | Post-emergence action against ALOMY (Alopecurus myosuroides [5]): 100% | Post-emergence action against ABUTH (Abutylon threophrasti [6]): 90% | Post-emergence action against SETVI (Setaria viridis [7]): 90% | Pre-emergence action against ECHCG (Echinochloa crus-galli [8]): 100% | Post-emergence action against AMARE (Amaranthus retroflexus [9]): 100% | Pre-emergence action against AMARE (Amaranthus retroflexus [10]): 100% | Post-emergence action against DIGSA (Digitaria sanguinalis [11]): 100% | Post-emergence action against ECHCG (Echinochloa crus-galli [12]): 100% | Post-emergence action against STEME (Stellaria media [13]): 100% | Pre-emergence action against LOLRI (Lolium rigidum [14]): 100% | Pre-emergence action against STEME (Stellaria media [15]): 100% | Pre-emergence action against MATIN [16]: 100% | Pre-emergence action against VERPE (Veronica persica [17]): 100% | Pre-emergence action against POAAN (Poa annua [18]): 100% | Post-emergence action against VERPE (Veronica persica [19]): 100% | Post-emergence action against MATIN [21]: 100% | Pre-emergence action against KCHSC (Bassia scoparia [22]): 100% | Pre-emergence action against DIGSA (Digitaria sanguinalis [23]): 100%

O=C(O)CSc1nn(-c2ccccc2F)c(-c2cncc(F)c2)c1Br [II-005]
Pre-emergence action against SETVI (Setaria viridis [1]): 100% | Pre-emergence action against ABUTH (Abutylon threophrasti [2]): 90% | Pre-emergence action against ALOMY (Alopecurus myosuroides [3]): 100% | Post-emergence action against POAAN (Poa annua [4]): 100% | Post-emergence action against ALOMY (Alopecurus myosuroides [5]): 100% | Post-emergence action against ABUTH (Abutylon threophrasti [6]): 90% | Post-emergence action against SETVI (Setaria viridis [7]): 100% | Pre-emergence action against ECHCG (Echinochloa crus-galli [8]): 100% | Post-emergence action against AMARE (Amaranthus retroflexus [9]): 90% | Post-emergence action against LOLRI (Lolium rigidum [24]): 90% | Pre-emergence action against AMARE (Amaranthus retroflexus [10]): 100% | Post-emergence action against DIGSA (Digitaria sanguinalis [11]): 100% | Post-emergence action against ECHCG (Echinochloa crus-galli [12]): 100% | Post-emergence action against STEME (Stellaria media [13]): 100% | Pre-emergence action against LOLRI (Lolium rigidum [14]): 100% | Pre-emergence action against STEME (Stellaria media [15]): 100% | Pre-emergence action against MATIN [16]: 100% | Pre-emergence action against VERPE (Veronica persica [17]): 100% | Pre-emergence action against POAAN (Poa annua [18]): 100% | Post-emergence action against VERPE (Veronica persica [19]): 100% | Post-emergence action against KCHSC (Bassia scoparia [20]): 90% | Post-emergence action against MATIN [21]: 100% | Pre-emergence action against KCHSC (Bassia scoparia [22]): 90% | Pre-emergence action against DIGSA (Digitaria sanguinalis [23]): 100%

O=C(O)CSc1nn(-c2ccccc2F)c(-c2ccc(F)c(F)c2)c1Cl [Example I-014]
Pre-emergence action against SETVI (Setaria viridis [1]): 100% | Pre-emergence action against ABUTH (Abutylon threophrasti [2]): 100% | Pre-emergence action against ALOMY (Alopecurus myosuroides [3]): 100% | Post-emergence action against POAAN (Poa annua [4]): 100% | Post-emergence action against ALOMY (Alopecurus myosuroides [5]): 100% | Post-emergence action against ABUTH (Abutylon threophrasti [6]): 90% | Post-emergence action against SETVI (Setaria viridis [7]): 90% | Pre-emergence action against ECHCG (Echinochloa crus-galli [8]): 90% | Post-emergence action against LOLRI (Lolium rigidum [24]): 90% | Post-emergence action against DIGSA (Digitaria sanguinalis [11]): 100% | Post-emergence action against ECHCG (Echinochloa crus-galli [12]): 90% | Post-emergence action against STEME (Stellaria media [13]): 100% | Pre-emergence action against LOLRI (Lolium rigidum [14]): 100% | Pre-emergence action against STEME (Stellaria media [15]): 100% | Pre-emergence action against MATIN [16]: 100% | Pre-emergence action against VERPE (Veronica persica [17]): 100% | Pre-emergence action against POAAN (Poa annua [18]): 100% | Post-emergence action against VERPE (Veronica persica [19]): 90% | Post-emergence action against KCHSC (Bassia scoparia [20]): 100% | Post-emergence action against MATIN [21]: 100% | Pre-emergence action against KCHSC (Bassia scoparia [22]): 90% | Pre-emergence action against DIGSA (Digitaria sanguinalis [23]): 100%
